This passage reports GI50 and TGI results from PubChem BioAssay (NCI).

Test systems include HOP-92 NSCLC; IGROV1 ovarian; K-562 leukemia; MCF7 breast; SF-295 CNS; ACHN renal; SNB-19 CNS; NCI-H460 lung; CCRF-CEM leukemia; TK-10 renal.
What all share (test): growth of human tumour cells (NCI), 48 h

SMILES strings stand for the structures. “And” between values parts separate entries of the source, which are not always exact repeats. Identical values can stand only once.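 48-hour exposure; five concentrations; linearly interpolated endpoints. The concentration for 50% growth inhibition is given as GI50. At the TGI there is no net growth.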

Consider `Cc1ccc(C[As+](c2ccccc2)(c2ccccc2)c2ccccc2)cc1`, for which the GI50 is 0.158 µM with HOP-92 NSCLC; 1.17 µM in the test on IGROV1 ovarian; 0.466 µM in the test on K-562 leukemia; 0.621 µM in the test on MCF7 breast; 0.753 µM in the test on SF-295 CNS; 3.66 µM in the test on ACHN renal. Besides, the GI50 was 0.978 µM with SNB-19 CNS, 0.674 µM with NCI-H460 lung, 1.08 µM with CCRF-CEM leukemia and 2.01 µM with TK-10 renal. Besides, the TGI was 0.961 µM in the test with HOP-92 NSCLC; 25.1 µM in the test on IGROV1 ovarian; 21.9 µM with K-562 leukemia; 17.2 µM with MCF7 breast; 4.41 µM in the test on SF-295 CNS; > 100 µM with ACHN renal. Also, the TGI is > 76.8 µM in the test with SNB-19 CNS, 8.36 µM in the test on NCI-H460 lung, 55 µM in the test with CCRF-CEM leukemia and 20.5 µM with TK-10 renal.

Consider `Cc1cc(O)ccc1C1=NN(c2ccc(S(N)(=O)=O)cc2)C(=O)CC1`, for which the GI50 was 11.1 µM and 18.5 µM in the test on HOP-92 NSCLC; 6.75 µM and 9.07 µM with IGROV1 ovarian; 3 µM and 2.68 µM in the test on K-562 leukemia; 2.26 µM and 8.23 µM in the test on MCF7 breast; 2.21 µM and 4.82 µM in the test on SF-295 CNS; 19.3 µM and 38.3 µM with ACHN renal. Also, the GI50 in the test with SNB-19 CNS is 27.4 µM and 20.3 µM; in the test on NCI-H460 lung, 2.19 µM and 6.16 µM; with CCRF-CEM leukemia it was 9.88 µM and 10.5 µM; in the test with TK-10 renal, > 50 µM and 15.9 µM. Besides, the TGI with HOP-92 NSCLC was 50 µM and 75.5 µM; in the test on IGROV1 ovarian it was 50 µM and > 100 µM; with K-562 leukemia, 50 µM and > 100 µM; with MCF7 breast it was 50 µM and > 100 µM; in the test on SF-295 CNS, 34.7 µM and 24.3 µM; in the test with ACHN renal, 50 µM and > 100 µM. Further, the TGI in the test with SNB-19 CNS was 50 µM and > 100 µM; with NCI-H460 lung, 50 µM and > 100 µM; in the test on CCRF-CEM leukemia, 50 µM and > 100 µM; in the test with TK-10 renal, > 50 µM and 52.7 µM.

As to `COC(=O)[C@]12CC[C@@H](C)[C@H](C)[C@@H]1C1=CC[C@@H]3[C@@]4(C)C(C=O)=C[C@@](C)(CO)[C@@H]4[C@H](O)C[C@@]3(C)[C@]1(C)CC2`, the GI50 with HOP-92 NSCLC was 6.18 µM; in the test with IGROV1 ovarian it was 4.25 µM; in the test on K-562 leukemia, 3.86 µM; with MCF7 breast, 2.44 µM; with SF-295 CNS it was 3.94 µM; in the test with ACHN renal, 3.47 µM. The GI50 in the test on SNB-19 CNS was 7.69 µM; with NCI-H460 lung it was 3.03 µM; in the test on CCRF-CEM leukemia, 3.73 µM; in the test on TK-10 renal, 2.49 µM. Besides, the TGI turned out to be 20.9 µM in the test with HOP-92 NSCLC; 21 µM in the test with IGROV1 ovarian; 15.5 µM with K-562 leukemia; 10.3 µM with MCF7 breast; 16.5 µM with SF-295 CNS; 12.2 µM with ACHN renal. Moreover, the TGI worked out at 21.7 µM in the test on SNB-19 CNS, 9.6 µM in the test on NCI-H460 lung, 13.7 µM in the test with CCRF-CEM leukemia and 9.42 µM with TK-10 renal.

Take `O=C1C=C(NCCO)c2nccc3c2c1nc1ccccc13`: the GI50 in the test on HOP-92 NSCLC was > 100 µM; in the test with IGROV1 ovarian it was 20.4 µM; with K-562 leukemia it was 31.5 µM; in the test on MCF7 breast, 20.5 µM; with SF-295 CNS it was 18.5 µM; in the test with ACHN renal it was 16.3 µM. The GI50 in the test with SNB-19 CNS is 34 µM; in the test on NCI-H460 lung, 6.04 µM; in the test with CCRF-CEM leukemia, 21.3 µM; in the test with TK-10 renal it was 18.7 µM. Also, the TGI in the test on HOP-92 NSCLC, in the test with IGROV1 ovarian, in the test with K-562 leukemia, in the test on MCF7 breast, with SF-295 CNS and with ACHN renal was > 100 µM throughout. Besides, the TGI in the test on SNB-19 CNS is > 100 µM; in the test with NCI-H460 lung, 40.9 µM; with CCRF-CEM leukemia it was > 100 µM; with TK-10 renal it was 60.8 µM.

Regarding `COC(=O)C1C(C(=O)O)C2(c3ccccc3)C(=O)C1(c1ccccc1)C(c1ccccc1)=C2c1ccccc1` (stereo not given), the GI50 in the test with HOP-92 NSCLC is 10.6 µM; with IGROV1 ovarian, 17.2 µM; in the test on K-562 leukemia, 21.8 µM; in the test with MCF7 breast, 19.6 µM; in the test on SF-295 CNS, 22.9 µM; in the test with ACHN renal, 25.8 µM. In addition, the GI50 in the test with SNB-19 CNS is 11.7 µM; with NCI-H460 lung, 13.6 µM; with CCRF-CEM leukemia, 11.7 µM; with TK-10 renal, 39.2 µM. Besides, the TGI with HOP-92 NSCLC was 30.9 µM; in the test on IGROV1 ovarian, 33 µM; with K-562 leukemia it was > 100 µM; in the test on MCF7 breast, 37.6 µM; with SF-295 CNS it was 71.2 µM; with ACHN renal, 88.1 µM. Besides, the TGI in the test on SNB-19 CNS stood at 29.5 µM; in the test on NCI-H460 lung it was 29.1 µM; with CCRF-CEM leukemia it was 33.6 µM; in the test with TK-10 renal it was 99 µM.

Consider `Cn1ncc(C#N)c1-c1ccc2c(c1)CN([C@H](CN)Cc1cccc(F)c1)C2=O`, for which the GI50 with HOP-92 NSCLC was 0.134 µM; in the test with IGROV1 ovarian, 0.0489 µM; in the test on K-562 leukemia, 27.4 µM; with MCF7 breast it was 0.812 µM; with SF-295 CNS, 0.503 µM; in the test with ACHN renal it was 13.6 µM. For the same compound, the GI50 with SNB-19 CNS was 1.15 µM; in the test on NCI-H460 lung, 0.752 µM; in the test on CCRF-CEM leukemia, 0.932 µM; in the test with TK-10 renal it was 0.787 µM. The TGI with HOP-92 NSCLC is 1.67 µM; with IGROV1 ovarian it was 1.59 µM; in the test on K-562 leukemia, > 100 µM; in the test on MCF7 breast, 25.4 µM; in the test on SF-295 CNS, 24.9 µM; in the test with ACHN renal, > 100 µM. For the same compound, the TGI with SNB-19 CNS is > 55.3 µM; in the test with NCI-H460 lung, > 100 µM; with CCRF-CEM leukemia it was > 100 µM; in the test with TK-10 renal it was 24 µM.

Consider `CCc1nc(C)cn1C(=O)OCc1nc2nc(Cl)nc(N3CCOCC3)c2[nH]1`, for which the GI50 is 0.88 µM in the test on HOP-92 NSCLC; 0.501 µM in the test on IGROV1 ovarian; 0.703 µM in the test on K-562 leukemia; 0.633 µM in the test with MCF7 breast; 2.79 µM in the test with SF-295 CNS; 0.854 µM with ACHN renal. Moreover, the GI50 with SNB-19 CNS is 1.43 µM; with NCI-H460 lung it was 1.7 µM; in the test with CCRF-CEM leukemia it was 0.302 µM; in the test with TK-10 renal, 1.79 µM. The TGI was 2.41 µM in the test on HOP-92 NSCLC; 1.86 µM in the test on IGROV1 ovarian; > 100 µM in the test on K-562 leukemia; 2.44 µM with MCF7 breast; 11.7 µM in the test with SF-295 CNS; 2.09 µM in the test with ACHN renal. Besides, the TGI in the test with SNB-19 CNS stood at 2.84 µM; in the test with NCI-H460 lung, 3.76 µM; with CCRF-CEM leukemia, 1.19 µM; with TK-10 renal it was 3.28 µM.
